Assay results published in the supplement of paper PMC13207355.
Structures can show the parent of a compound that is named as a salt.

Columns and labels:
Conditions in all cases: exposure time: 72 h
E13 [1] = patient-derived glioblastoma stem cells of classical subtype; assay: surviving fraction (nuclei count normalised to DMSO); higher = more cells surviving (less toxic)
E21 [2] = patient-derived glioblastoma stem cells of mesenchymal subtype; assay: as above
E28 [3] = patient-derived glioblastoma stem cells of classical subtype; assay: as above
E31 [4] = patient-derived glioblastoma stem cells of proneural subtype; assay: as above
E34 [5] = patient-derived glioblastoma stem cells of proneural subtype; assay: as above
E57 [6] = patient-derived glioblastoma stem cells of mesenchymal subtype; assay: as above
FT3469 [7] = normal neural stem cell line; assay: as above
E13 [8] = assay: phenotypic distance (Euclidean, principal components) from DMSO controls (arbitrary units); higher = stronger morphological change
E21 [9] = assay: as above
E28 [10] = assay: as above
E31 [11] = assay: as above
E34 [12] = assay: as above
E57 [13] = assay: as above
FT3469 [14] = assay: as above
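Throughout, for phenotypic distance (Euclidean, principal components) from DMSO controls: cell Painting imaging in 384-well plates, CellProfiler features reduced to at least 20 principal components, Euclidean distance versus same-plate DMSO vehicle wells (0.1% v/v), median over six images per well.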
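Throughout, for surviving fraction (nuclei count normalised to DMSO): nuclei counted by high-content imaging of Hoechst-stained cells in laminin-coated 384-well plates, relative to 0.1% DMSO vehicle wells, with staurosporine as cell-death control.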

COc1ccc([C@@H]2CC(=O)c3c(O)cc(O[C@@H]4O[C@H](CO[C@@H]5O[C@@H](C)[C@H](O)[C@@H](O)[C@H]5O)[C@@H](O)[C@H](O)[C@H]4O)cc3O2)cc1O [Hesperidin]
Conditions | phenotypic distance | surviving fraction
E13 [1], 4.1 nM | – | 0.863
E13 [1], 12.3 nM | – | 0.95
E13 [1], 37 nM | – | 0.946
E13 [1], 111.1 nM | – | 0.963
E13 [1], 333.3 nM | – | 0.941
E13 [1], 1000 nM | – | 1.04
E13 [1], 3000 nM | – | 0.96
E13 [8], 4.1 nM | 0.619 | –
E13 [8], 12.3 nM | 0.532 | –
E13 [8], 37 nM | 0.507 | –
E13 [8], 111.1 nM | 0.462 | –
E13 [8], 333.3 nM | 0.682 | –
E13 [8], 1000 nM | 0.572 | –
E13 [8], 3000 nM | 0.438 | –
E21 [2], 4.1 nM | – | 0.916
E21 [2], 12.3 nM | – | 0.952
E21 [2], 37 nM | – | 0.918
E21 [2], 111.1 nM | – | 1.01
E21 [2], 333.3 nM | – | 0.971
E21 [2], 1000 nM | – | 1.02
E21 [2], 3000 nM | – | 0.969
E21 [9], 4.1 nM | 0.723 | –
E21 [9], 12.3 nM | 1.01 | –
E21 [9], 37 nM | 0.467 | –
E21 [9], 111.1 nM | 0.825 | –
E21 [9], 333.3 nM | 0.905 | –
E21 [9], 1000 nM | 0.753 | –
E21 [9], 3000 nM | 1.01 | –
E28 [3], 4.1 nM | – | 1.02
E28 [3], 12.3 nM | – | 1.13
E28 [3], 37 nM | – | 1.02
E28 [3], 111.1 nM | – | 0.97
E28 [3], 333.3 nM | – | 1.02
E28 [3], 1000 nM | – | 1.13
E28 [3], 3000 nM | – | 0.967
E28 [10], 4.1 nM | 0.47 | –
E28 [10], 12.3 nM | 0.575 | –
E28 [10], 37 nM | 0.783 | –
E28 [10], 111.1 nM | 0.619 | –
E28 [10], 333.3 nM | 0.437 | –
E28 [10], 1000 nM | 0.666 | –
E28 [10], 3000 nM | 1.36 | –
E31 [4], 4.1 nM | – | 0.929
E31 [4], 12.3 nM | – | 1.11
E31 [4], 37 nM | – | 1.1
E31 [4], 111.1 nM | – | 0.966
E31 [4], 333.3 nM | – | 1.09
E31 [4], 1000 nM | – | 1.04
E31 [4], 3000 nM | – | 0.936
E31 [11], 4.1 nM | 0.45 | –
E31 [11], 12.3 nM | 0.684 | –
E31 [11], 37 nM | 0.77 | –
E31 [11], 111.1 nM | 0.32 | –
E31 [11], 333.3 nM | 0.513 | –
E31 [11], 1000 nM | 0.709 | –
E31 [11], 3000 nM | 0.756 | –
E34 [5], 4.1 nM | – | 1.02
E34 [5], 12.3 nM | – | 0.86
E34 [5], 37 nM | – | 0.979
E34 [5], 111.1 nM | – | 1.21
E34 [5], 333.3 nM | – | 1.01
E34 [5], 1000 nM | – | 0.93
E34 [5], 3000 nM | – | 1.06
E34 [12], 4.1 nM | 0.666 | –
E34 [12], 12.3 nM | 0.79 | –
E34 [12], 37 nM | 0.595 | –
E34 [12], 111.1 nM | 1.02 | –
E34 [12], 333.3 nM | 0.595 | –
E34 [12], 1000 nM | 0.635 | –
E34 [12], 3000 nM | 0.793 | –
E57 [6], 4.1 nM | – | 1
E57 [6], 12.3 nM | – | 1.12
E57 [6], 37 nM | – | 0.932
E57 [6], 111.1 nM | – | 0.961
E57 [6], 333.3 nM | – | 0.943
E57 [6], 1000 nM | – | 0.925
E57 [6], 3000 nM | – | 0.915
E57 [13], 4.1 nM | 0.43 | –
E57 [13], 12.3 nM | 0.735 | –
E57 [13], 37 nM | 0.539 | –
E57 [13], 111.1 nM | 0.532 | –
E57 [13], 333.3 nM | 0.511 | –
E57 [13], 1000 nM | 0.762 | –
E57 [13], 3000 nM | 0.602 | –
FT3469 [7], 4.1 nM | – | 1.13
FT3469 [7], 12.3 nM | – | 1.1
FT3469 [7], 37 nM | – | 1.05
FT3469 [7], 111.1 nM | – | 1.15
FT3469 [7], 333.3 nM | – | 0.937
FT3469 [7], 1000 nM | – | 1.01
FT3469 [7], 3000 nM | – | 0.981
FT3469 [14], 4.1 nM | 0.821 | –
FT3469 [14], 12.3 nM | 1.41 | –
FT3469 [14], 37 nM | 0.766 | –
FT3469 [14], 111.1 nM | 1.05 | –
FT3469 [14], 333.3 nM | 0.567 | –
FT3469 [14], 1000 nM | 0.989 | –
FT3469 [14], 3000 nM | 0.744 | –

CC(C)C[C@H]1C(=O)N2CCC[C@H]2[C@]2(O)O[C@](NC(=O)[C@@H]3C=C4c5cccc6[nH]c(Br)c(c56)C[C@H]4N(C)C3)(C(C)C)C(=O)N12 [Bromocryptine mesylate]
Conditions | phenotypic distance | surviving fraction
E13 [1], 4.1 nM | – | 0.907
E13 [1], 12.3 nM | – | 0.944
E13 [1], 37 nM | – | 0.958
E13 [1], 111.1 nM | – | 0.816
E13 [1], 333.3 nM | – | 0.981
E13 [1], 1000 nM | – | 0.976
E13 [1], 3000 nM | – | 0.8
E13 [8], 4.1 nM | 0.797 | –
E13 [8], 12.3 nM | 0.698 | –
E13 [8], 37 nM | 0.44 | –
E13 [8], 111.1 nM | 1.07 | –
E13 [8], 333.3 nM | 0.683 | –
E13 [8], 1000 nM | 1.03 | –
E13 [8], 3000 nM | 1.57 | –
E21 [2], 4.1 nM | – | 1.06
E21 [2], 12.3 nM | – | 1.02
E21 [2], 37 nM | – | 1.05
E21 [2], 111.1 nM | – | 0.989
E21 [2], 333.3 nM | – | 1
E21 [2], 1000 nM | – | 0.969
E21 [2], 3000 nM | – | 0.967
E21 [9], 4.1 nM | 0.67 | –
E21 [9], 12.3 nM | 0.901 | –
E21 [9], 37 nM | 0.972 | –
E21 [9], 111.1 nM | 0.667 | –
E21 [9], 333.3 nM | 0.353 | –
E21 [9], 1000 nM | 0.811 | –
E21 [9], 3000 nM | 0.593 | –
E28 [3], 4.1 nM | – | 1.1
E28 [3], 12.3 nM | – | 1.07
E28 [3], 37 nM | – | 1.07
E28 [3], 111.1 nM | – | 1.12
E28 [3], 333.3 nM | – | 0.978
E28 [3], 1000 nM | – | 1.05
E28 [3], 3000 nM | – | 0.779
E28 [10], 4.1 nM | 1.04 | –
E28 [10], 12.3 nM | 0.531 | –
E28 [10], 37 nM | 0.575 | –
E28 [10], 111.1 nM | 0.661 | –
E28 [10], 333.3 nM | 0.642 | –
E28 [10], 1000 nM | 0.784 | –
E28 [10], 3000 nM | 1.28 | –
E31 [4], 4.1 nM | – | 1.07
E31 [4], 12.3 nM | – | 1.06
E31 [4], 37 nM | – | 0.944
E31 [4], 111.1 nM | – | 1.15
E31 [4], 333.3 nM | – | 1.03
E31 [4], 1000 nM | – | 1.13
E31 [4], 3000 nM | – | 0.897
E31 [11], 4.1 nM | 0.381 | –
E31 [11], 12.3 nM | 0.548 | –
E31 [11], 37 nM | 0.581 | –
E31 [11], 111.1 nM | 0.404 | –
E31 [11], 333.3 nM | 0.658 | –
E31 [11], 1000 nM | 0.705 | –
E31 [11], 3000 nM | 0.828 | –
E34 [5], 4.1 nM | – | 0.907
E34 [5], 12.3 nM | – | 0.846
E34 [5], 37 nM | – | 0.967
E34 [5], 111.1 nM | – | 1.16
E34 [5], 333.3 nM | – | 0.879
E34 [5], 1000 nM | – | 1.05
E34 [5], 3000 nM | – | 0.727
E34 [12], 4.1 nM | 0.67 | –
E34 [12], 12.3 nM | 0.914 | –
E34 [12], 37 nM | 0.493 | –
E34 [12], 111.1 nM | 0.843 | –
E34 [12], 333.3 nM | 1.2 | –
E34 [12], 1000 nM | 0.94 | –
E34 [12], 3000 nM | 1.28 | –
E57 [6], 4.1 nM | – | 0.932
E57 [6], 12.3 nM | – | 1.13
E57 [6], 37 nM | – | 0.893
E57 [6], 111.1 nM | – | 1.05
E57 [6], 333.3 nM | – | 1.01
E57 [6], 1000 nM | – | 0.91
E57 [6], 3000 nM | – | 0.777
E57 [13], 4.1 nM | 0.496 | –
E57 [13], 12.3 nM | 0.874 | –
E57 [13], 37 nM | 0.757 | –
E57 [13], 111.1 nM | 5.36 | –
E57 [13], 333.3 nM | 0.51 | –
E57 [13], 1000 nM | 0.474 | –
E57 [13], 3000 nM | 1.74 | –
FT3469 [7], 4.1 nM | – | 0.76
FT3469 [7], 12.3 nM | – | 0.909
FT3469 [7], 37 nM | – | 1.01
FT3469 [7], 111.1 nM | – | 0.932
FT3469 [7], 333.3 nM | – | 0.984
FT3469 [7], 1000 nM | – | 1.01
FT3469 [7], 3000 nM | – | 0.912
FT3469 [14], 4.1 nM | 1.05 | –
FT3469 [14], 12.3 nM | 1.08 | –
FT3469 [14], 37 nM | 0.956 | –
FT3469 [14], 111.1 nM | 0.691 | –
FT3469 [14], 333.3 nM | 0.43 | –
FT3469 [14], 1000 nM | 0.442 | –
FT3469 [14], 3000 nM | 0.73 | –
